Calls of active or inactive are those of the source. The calls are words filed in the database; no cut-off is given here.
Tests used:
Staphylococcus aureus [1] = test: Bactericidal activity against methicillin-resistant Staphylococcus aureus clinical isolate 16 assessed as reduction in colony formation in early stage at 8 times of MIC measured within 30 mins by time-kill assay; assay type: functional, organism-based
Staphylococcus aureus [2] = test: Antibiofilm activity against methicillin-resistant Staphylococcus aureus clinical isolate 16 assessed as decrease in viable bacteria in biofilm at 2 to 64 ug/ml incubated for 16 to 18 hrs by biofilm disruption assay; assay type: functional, organism-based; settings: dose 2-64 µg/ml, time 16-18 hrs
[3] = Toxicity in BALB/c mouse assessed as abnormalities and pathological changes in liver at 25 mg/kg, sc once a day for 3 days by H and E staining based assay; assay type: organism-based; settings: in vivo, 72 h, time 3 day
Staphylococcus aureus [4] = test: Antibacterial activity against methicillin-resistant Staphylococcus aureus clinical isolate M-12 assessed as inhibition of visible growth incubated for 16 to 18 hrs by CLSI method; assay type: functional; settings: time 16-18 hrs, read-out: MIC100
[5] = system: Stenotrophomonas maltophilia; test: Antibacterial activity against Stenotrophomonas maltophilia assessed as inhibition of visible growth incubated for 16 to 18 hrs by CLSI method; assay type: functional; settings: time 16-18 hrs, read-out: MIC100
Staphylococcus aureus [6] = test: Bactericidal activity against methicillin-resistant Staphylococcus aureus clinical isolate 16 assessed as reduction in colony formation at 1 times of MIC measured upto 8 hrs by time-kill assay; assay type: functional, organism-based; settings: time hrs <=8
Staphylococcus aureus [7] = test: Bactericidal activity against methicillin-resistant Staphylococcus aureus clinical isolate 16 assessed as reduction in colony formation in late stage at 8 times of MIC measured within 2 hrs by time-kill assay; assay type: functional, organism-based
Staphylococcus aureus [8] = test: Antibacterial activity against methicillin-resistant Staphylococcus aureus clinical isolate M-17 assessed as inhibition of visible growth incubated for 16 to 18 hrs by CLSI method; assay type: functional; settings: time 16-18 hrs, read-out: MIC100
Cell membrane [9] = test: Induction of cell membrane permeability in methicillin-resistant Staphylococcus aureus clinical isolate 16 assessed as fluorescent intensity by SYTOX dye based fluorescence assay; assay type: subcellular
Cell membrane [10] = test: Induction of membrane disruption in methicillin-resistant Staphylococcus aureus clinical isolate 16 assessed as increase in green fluorescence at 10 ug/ml by SYTOX green staining based confocal laser scanning microscopy; assay type: subcellular; settings: dose 10.0 µg/ml
Cell membrane [11] = test: Induction of membrane morphological changes in methicillin-resistant Staphylococcus aureus clinical isolate 16 assessed as visible cell surface wrinkles and disruption at 10 ug/ml by scanning electron microscopy; assay type: subcellular; settings: dose 10.0 µg/ml
Staphylococcus aureus [12] = test: Antibacterial activity against methicillin-resistant Staphylococcus aureus clinical isolate 16 infected in BALB/c mouse assessed as reduction in inflammatory cell inflammation in kidney at 25 mg/kg, sc once a day for 3 days by H and E staining based assay; assay type: functional, organism-based; settings: time 3.0 day
Staphylococcus aureus [13] = test: Antibacterial activity against […] at sublethal concentration treated over 20 serial passages by resistance development assay; assay type: functional, organism-based
Staphylococcus aureus [14] = test: Antibacterial activity against methicillin-resistant Staphylococcus aureus clinical isolate M-15 assessed as inhibition of visible growth incubated for 16 to 18 hrs by CLSI method; assay type: functional; settings: time 16-18 hrs, read-out: MIC100
Staphylococcus aureus [15] = test: Antibacterial activity against methicillin-resistant Staphylococcus aureus clinical isolate 16 infected in BALB/c mouse assessed as reduction in inflammatory cell inflammation in liver at 25 mg/kg, sc once a day for 3 days by H and E staining based assay; assay type: functional, organism-based; settings: time 3.0 day
Staphylococcus aureus [16] = test: Antibiofilm activity against Staphylococcus aureus assessed as reduction in colony forming unit at 64 ug/ml incubated for 16 to 18 hrs by biofilm disruption assay; assay type: functional; settings: dose 64 µg/ml; time 16-18 hrs
Staphylococcus aureus [17] = test: Antibacterial activity against methicillin-resistant Staphylococcus aureus clinical isolate M-20 assessed as inhibition of visible growth incubated for 16 to 18 hrs by CLSI method; assay type: functional; settings: time 16-18 hrs, read-out: MIC100
Escherichia coli = test: Antibacterial activity against Escherichia coli ATCC25922 assessed as inhibition of visible growth incubated for 16 to 18 hrs by CLSI method; assay type: functional; settings: time 16-18 hrs, read-out: MIC100
L02 [18] = test: Cytotoxicity against human L02 cells assessed as cell viability at 128 ug/ml incubated for 24 hrs by CCK8 assay; assay type: cell-based; settings: l02, 24 h, dose 128 µg/ml
[19] = Selectivity index, HC50 for hemolytic activity in sheep RBC to MIC for antibacterial activity against Staphylococcus aureus ATCC29213; assay type: toxicity; settings: sheep red blood cells (erythrocytes), read-out: Selectivity Index
Staphylococcus aureus [20] = test: Antibacterial activity against methicillin-resistant Staphylococcus aureus clinical isolate M-18 assessed as inhibition of visible growth incubated for 16 to 18 hrs by CLSI method; assay type: functional; settings: time 16-18 hrs, read-out: MIC100
Micrococcus luteus = test: Antibacterial activity against Micrococcus luteus assessed as inhibition of visible growth incubated for 16 to 18 hrs by CLSI method; assay type: functional; settings: time 16-18 hrs, read-out: MIC100
Staphylococcus aureus [21] = test: Antibacterial activity against methicillin-resistant Staphylococcus aureus clinical isolate 16 infected in BALB/c mouse assessed as reduction in inflammatory cell inflammation in spleen at 25 mg/kg, sc once a day for 3 days by H and E staining based assay; assay type: functional, organism-based; settings: time 3.0 day
L02 [22] = test: Cytotoxicity against human LO2 cells assessed as cell morphology at 128 ug/ml incubated for 24 hrs by live/dead staining based fluorescence microscopy; settings: l02, 24 h, dose 128 µg/ml
[23] = Toxicity in BALB/c mouse assessed as abnormalities and pathological changes in spleen at 25 mg/kg, sc once a day for 3 days by H and E staining based assay; assay type: organism-based; settings: in vivo, 72 h, time 3 day
Cell membrane [24] = test: Induction of membrane disruption in methicillin-resistant Staphylococcus aureus clinical isolate 16 assessed as increase in blue fluorescence at 10 ug/ml by DAPI staining based confocal laser scanning microscopy; settings: dose 10.0 µg/ml
Enterococcus faecalis = test: Antibacterial activity against Enterococcus faecalis ATCC29212 assessed as inhibition of visible growth incubated for 16 to 18 hrs by CLSI method; assay type: functional; settings: time 16-18 hrs, read-out: MIC100
Staphylococcus aureus [25] = test: Antibiofilm activity against Staphylococcus aureus assessed as decrease in viable bacteria in biofilm at 2 to 64 ug/ml incubated for 16 to 18 hrs by biofilm disruption assay; assay type: functional, organism-based; settings: dose 2-64 µg/ml, time 16-18 hrs
Staphylococcus aureus [26] = test: Antibacterial activity against methicillin-resistant Staphylococcus aureus clinical isolate M-11 assessed as inhibition of visible growth incubated for 16 to 18 hrs by CLSI method; assay type: functional; settings: time 16-18 hrs, read-out: MIC100
Staphylococcus aureus [27] = test: Antibacterial activity against Staphylococcus aureus ATCC29213 assessed as inhibition of visible growth incubated for 16 to 18 hrs by CLSI method; assay type: functional; settings: time 16-18 hrs, read-out: MIC100
Staphylococcus aureus [28] = test: Antibacterial activity against methicillin-resistant Staphylococcus aureus clinical isolate 16 infected in BALB/c mouse assessed as reduction in bacterial load in liver at 25 mg/kg, sc once a day for 3 days by H and E staining based assay; assay type: functional, organism-based; settings: time 3.0 day
Staphylococcus aureus [29] = test: Antibacterial activity against methicillin-resistant Staphylococcus aureus clinical isolate M-13 assessed as inhibition of visible growth incubated for 16 to 18 hrs by CLSI method; assay type: functional; settings: time 16-18 hrs, read-out: MIC100
Staphylococcus aureus [30] = test: Antibacterial activity against […] assessed as fold increase in MIC at sublethal concentration treated over 20 serial passages by resistance development assay; assay type: functional
Staphylococcus aureus [31] = test: Antibacterial activity against methicillin-resistant Staphylococcus aureus clinical isolate M-14 assessed as inhibition of visible growth incubated for 16 to 18 hrs by CLSI method; assay type: functional; settings: time 16-18 hrs, read-out: MIC100
Staphylococcus aureus [32] = test: Antibacterial activity against methicillin-resistant Staphylococcus aureus clinical isolate 16 infected in BALB/c mouse assessed as reduction in bacterial load in kidney at 25 mg/kg, sc once a day for 3 days by H and E staining based assay; assay type: functional, organism-based; settings: time 3.0 day
Salmonella enterica = test: Antibacterial activity against Salmonella enterica 349812 assessed as inhibition of visible growth incubated for 16 to 18 hrs by CLSI method; assay type: functional; settings: time 16-18 hrs, read-out: MIC100

Question: What does the source list for `C=CCc1ccc(OCCC[N+](C)(C)CC(=O)NCCCC)c(-c2ccc(OCCC[N+](C)(C)CC(=O)NCCCC)c(CC=C)c2)c1.[Br-].[Br-]`?
Answer: Activity (Staphylococcus aureus [1]): Active; Activity (Staphylococcus aureus [2]): Active; Activity [3]: Non-Toxic; MIC (Staphylococcus aureus [4]): 0.5 µg/mL; MIC [5]: 8 µg/mL; Activity (Staphylococcus aureus [6]): Active; Activity (Staphylococcus aureus [7]): Active; MIC (Staphylococcus aureus [8]): 0.5 µg/mL; Activity (Cell membrane [9]): Dose-Dependent Effect; Activity (Cell membrane [10]): Active; Activity (Cell membrane [11]): Active; Activity (Staphylococcus aureus [12]): Active; Activity (Staphylococcus aureus [13]): Active; MIC (Staphylococcus aureus [14]): 0.5 µg/mL; Activity (Staphylococcus aureus [15]): Active; Activity (Staphylococcus aureus [16]): 3.8 log10CFU/ml; MIC (Staphylococcus aureus [17]): 3 µg/mL; MIC (Escherichia coli): 4 µg/mL; Activity (L02 [18]): Non-Toxic; selectivity ratio [19]: 789; MIC (Staphylococcus aureus [20]): 0.5 µg/mL; MIC (Micrococcus luteus): 2 µg/mL; Activity (Staphylococcus aureus [21]): Active; Activity (L02 [22]): Non-Toxic; Activity [23]: Non-Toxic; Activity (Cell membrane [24]): Dose-Dependent Effect; MIC (Enterococcus faecalis): 2 µg/mL; Activity (Staphylococcus aureus [25]): Active; MIC (Staphylococcus aureus [26]): 1 µg/mL; MIC (Staphylococcus aureus [27]): 1 µg/mL; Activity (Staphylococcus aureus [28]): Active; MIC (Staphylococcus aureus [29]): 1 µg/mL; fold change (FC) (Staphylococcus aureus [30]): 128; MIC (Staphylococcus aureus [31]): 1 µg/mL; Activity (Staphylococcus aureus [32]): Active; MIC (Salmonella enterica): 8 µg/mL
